Blank lines part the entries; values can stand above or below the compound they belong to.
What was measured:
[1] = Log D7.4 shake flask assay; assay type: physicochemical; details: octanol/PBS, pH 7.4
Chemical stability assay = assay type: physicochemical; details: 37 °C
[2] = Caco-2 bidirectional permeability assay; details: human, Caco-2, 10 µM, 37 °C
[3] = test system: MCF7 (EGFR positive cancer cell line); experiment: LDH release cytotoxicity / cell viability assay in MCF7; assay type: cell-based; details: Homo sapiens
[4] = buffer pH 2.0, pH 2, Chemical Stability - Half-Life, pH 2.0, 5 µM
[5] = buffer pH 10.0, pH 10, Chemical Stability - Half-Life, pH 10.0, 5 µM

Compound: CCCSc1ccc2nc(NC(=O)OC)[nH]c2c1 [Albendazole, albendazole]
logD at 4 h [1]: 3.6 ± 0.1
solubility at 24 h (Thermodynamic solubility; pH 4.5): < 1 µg/mL
Thermodynamic Solubility (Thermodynamic solubility; pH 7.4, PBS, room temperature, 24 h): 0.72 ± 0.2 µg/mL

Compound: COc1ccc2[nH]c([S+]([O-])Cc3ncc(C)c(OC)c3C)nc2c1 (stereo not shown) [Omeprazole]
half-life at 5 µM (Chemical stability assay; [4]): 10.2 ± 3.1 min
half-life at 5 µM (Chemical stability assay; [5]): 55.3 ± 11.4 min

Compound: CC(C)(O)CC(=O)NCCn1ccc2ncnc(Nc3ccc(Oc4cccc(C(F)(F)F)c4)c(Cl)c3)c21 [TAK-285]
IC50 [3]: 15.5 ± 5.6 µM

Results, then the compound that gave them:

half-life at 5 µM (Chemical stability assay; [4]): 82.9 ± 14.8 min
half-life at 5 µM (Chemical stability assay; [5]): 8.3 ± 2.6 min
Compound: CC(C)[N+](C)(CCOC(=O)C1c2ccccc2Oc2ccccc21)C(C)C [Propantheline bromide]

Papp at 2 h, 10 µM ([2]; Caco-2, pH 7.4, Papp (Apical to Basal), apical to basal): 29 ± 1.2 ×10⁻⁶ cm/s
Papp at 2 h, 10 µM ([2]; Caco-2, pH 7.4, Papp (Basal to Apical), basal to apical): 21.1 ± 0.3 ×10⁻⁶ cm/s
Compound: CC(C)NCC(O)COc1cccc2ccccc12 (stereo not shown) [Propranolol, propranolol]
